Test results published in the NIST ThermoML archive (doi:10.1016/j.fluid.2009.08.023).
Numbers after ± are expanded uncertainties.

Conditions: Liquid, Closed cell (Static) method

FC(F)CC(F)(F)F [1,1,1,3,3-pentafluoropropane]
Conditions | vapor or sublimation pressure [kPa]
235.65 K | 6.9 ± 0.6
237.61 K | 7.83 ± 0.6
239.61 K | 8.89 ± 0.6
241.65 K | 10.09 ± 0.6
243.57 K | 11.33 ± 0.6
245.57 K | 12.77 ± 0.6
247.67 K | 14.43 ± 0.6
249.72 K | 16.22 ± 0.6
251.16 K | 17.6 ± 0.6
251.64 K | 18.05 ± 0.6
252.68 K | 19.12 ± 0.6
253.7 K | 20.23 ± 0.6
255.59 K | 22.39 ± 0.6
256.66 K | 23.69 ± 0.6
257.56 K | 24.84 ± 0.6
259.6 K | 27.62 ± 0.6
261.27 K | 30.07 ± 0.6
261.47 K | 30.38 ± 0.6
261.62 K | 30.62 ± 0.6
263.88 K | 34.3 ± 0.6
265.69 K | 37.48 ± 0.6
266.4 K | 38.77 ± 0.6
267.21 K | 40.32 ± 0.6
267.51 K | 40.9 ± 0.6
267.65 K | 41.19 ± 0.6
269.61 K | 45.21 ± 0.61
271.59 K | 49.58 ± 0.61
271.73 K | 49.9 ± 0.61
272.61 K | 51.93 ± 0.61
273.73 K | 54.67 ± 0.61
275.73 K | 59.81 ± 0.61
277.71 K | 65.28 ± 0.61
277.74 K | 65.39 ± 0.61
279.71 K | 71.23 ± 0.61
279.72 K | 71.27 ± 0.61
281.62 K | 77.24 ± 0.61
281.74 K | 77.66 ± 0.61
282.67 K | 80.74 ± 0.62
283.01 K | 81.9 ± 0.62
283.62 K | 84.01 ± 0.62
285.6 K | 91.2 ± 0.62
287.57 K | 98.81 ± 0.62
287.58 K | 98.82 ± 0.62
287.63 K | 99.06 ± 0.62
289.64 K | 107.32 ± 0.63
291.68 K | 116.25 ± 0.63
292.11 K | 118.22 ± 0.63
292.56 K | 120.29 ± 0.63
293.02 K | 122.46 ± 0.63
294.05 K | 127.38 ± 0.64
296.05 K | 137.42 ± 0.64
297.68 K | 146.08 ± 0.65
298.07 K | 148.16 ± 0.65
299.99 K | 158.97 ± 0.65
302.22 K | 172.36 ± 0.66
302.61 K | 174.75 ± 0.66
302.82 K | 176.04 ± 0.66
306.06 K | 197.31 ± 0.68
308.24 K | 212.7 ± 0.69
312.05 K | 241.93 ± 0.71
314.67 K | 263.68 ± 0.73
316.8 K | 282.34 ± 0.75
318.62 K | 299.22 ± 0.76
321.02 K | 322.69 ± 0.79
324.94 K | 363.8 ± 0.82
326.92 K | 386.02 ± 0.85
328.21 K | 401 ± 0.86
328.88 K | 409.17 ± 0.87
332.34 K | 452.27 ± 0.92
334.54 K | 481.58 ± 0.95
335.06 K | 488.66 ± 0.96
337.05 K | 516.55 ± 0.99
337.07 K | 516.91 ± 0.99
337.71 K | 526.04 ± 1
339.46 K | 552.03 ± 1
340.65 K | 570.3 ± 1.1
340.66 K | 570.45 ± 1.1
343.11 K | 609.1 ± 1.1
344.74 K | 636.25 ± 1.1
345.11 K | 642.16 ± 1.1
347.04 K | 675.54 ± 1.2
348.61 K | 703.69 ± 1.2
349.13 K | 713.08 ± 1.2
349.32 K | 716.41 ± 1.2
351.61 K | 759.56 ± 1.3
363.48 K | 1014 ± 1.6
365.4 K | 1060.6 ± 1.7
368.8 K | 1147.1 ± 1.9
371.52 K | 1219.9 ± 2
373.61 K | 1278.4 ± 2.1
374.58 K | 1306 ± 2.1
375.9 K | 1344.6 ± 2.2
378.5 K | 1422.7 ± 2.3
380.59 K | 1487.9 ± 2.4
380.96 K | 1500 ± 2.4
383.23 K | 1573.6 ± 2.5
386.07 K | 1669.5 ± 2.7
388.53 K | 1757 ± 2.8
391.15 K | 1853.4 ± 3
393.55 K | 1945 ± 3.1
394.58 K | 1985.6 ± 3.2
396.2 K | 2050.7 ± 3.3
398.69 K | 2153.7 ± 3.5
401.04 K | 2254.6 ± 3.6
402.98 K | 2340.8 ± 3.7
404.3 K | 2400.9 ± 3.8
404.32 K | 2401.7 ± 3.8
405.05 K | 2435.4 ± 3.9
407.08 K | 2531.5 ± 4
408.53 K | 2601.7 ± 4.2
409.04 K | 2626.5 ± 4.2
409.43 K | 2646 ± 4.2
411.13 K | 2731.4 ± 4.4
413.25 K | 2841.1 ± 4.5
414.11 K | 2886.6 ± 4.6
414.65 K | 2916.1 ± 4.7
415.27 K | 2949.2 ± 4.7
417.28 K | 3060.7 ± 4.9
419.31 K | 3176.2 ± 5.1
420.09 K | 3221.7 ± 5.1
422.02 K | 3337.1 ± 5.3
422.45 K | 3363 ± 5.4
424.01 K | 3459.9 ± 5.5
424.32 K | 3479.2 ± 5.5
424.52 K | 3491.6 ± 5.6
426.47 K | 3617.9 ± 5.8
427.08 K | 3658.3 ± 5.8
